Assay results as given in US12295396B2, “Antagonists of T2R54 and compositions and uses thereof” (Firmenich Incorporated, priority 2018, dated 2025).

Biological target: T1, hT2R54 (Homo sapiens, UniProt P59534)
T1 construct: expressed in transfected cells; it overexpresses a promiscuous G protein
T1 sequence (P59534 1-338): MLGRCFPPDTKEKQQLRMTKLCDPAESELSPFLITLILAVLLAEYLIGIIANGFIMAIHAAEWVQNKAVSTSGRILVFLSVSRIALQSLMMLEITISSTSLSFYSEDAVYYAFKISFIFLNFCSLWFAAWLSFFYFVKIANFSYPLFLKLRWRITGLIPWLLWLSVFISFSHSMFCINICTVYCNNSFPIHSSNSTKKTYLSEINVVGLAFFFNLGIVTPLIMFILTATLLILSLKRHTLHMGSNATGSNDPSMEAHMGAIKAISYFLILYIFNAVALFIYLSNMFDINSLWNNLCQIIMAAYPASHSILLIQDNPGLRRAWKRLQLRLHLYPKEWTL
Experiment: Cell-based assay for measuring hT2R54 inhibition (FLIPR calcium, Fluo4AM, acetaminophen as bitter agonist)
Conditions: Table 2; cells stably expressing hT2R54 and a promiscuous G protein; read-out: hT2R54 IC50
Protocol: Cells stably expressing hT2R54 and a promiscuous G protein were seeded in 384 well plates 24 hours prior to the experiment. Cells were loaded with the calcium indicator Fluo4AM, washed and loaded in a FLIPR instrument with a compound plate containing increasing doses of acetaminophen in quadruplicates and prepared at 2× of final concentration. Baseline was recorded for 10 seconds, then 25 μl of […] was added onto 25 μl of cells and resulting changes in fluorescence were monitored over an additional 3 minutes. The host cell line overexpressing the G protein but not hT2R54 was treated as described above.
The ability of a test compound that blocks bitter taste elicited through hT2R54 was measured in this assay, as follows. Cells stably expressing hT2R54 and a promiscuous G protein were seeded in 384 well plates 24 hours prior to the experiment. Cells were loaded with the calcium indicator Fluo4AM, washed and loaded in a FLIPR instrument with a compound plate containing increasing doses of acetaminophen in buffer and increasing doses of acetaminophen with depicted fixed concentrations of Cmpd 109 (Table 4). Base line was recorded for 10 seconds, then 25 μl of compound and compound mixtures were added onto 25 μl of cells and resulting changes in fluorescence were monitored over an additional 3 minutes. The concentration of test compound that blocks half of the response when the bitter compound alone is present is presented as the EC50 or IC50 value.
In the examples above, the EC50 of compounds for blocking bitter taste elicited through T2R54 was measured in the same manner.

Structure (SMILES)	IC50 [nM]
CCOC(=O)N1CCN(CC(=O)Nc2cc3c(cc2C(C)=O)OCO3)CC1 [compound 29]	311
CC(=O)c1cc2c(cc1NC(=O)CN1CCN(C(=O)OC(C)C)CC1)OCO2 [compound 30]	40
CC(=O)c1cc2c(cc1NC(=O)CN1CCN(C(=O)Oc3ccccc3)CC1)OCO2 [compound 31]	262
CC(=O)c1cc2c(cc1NC(=O)CN1CCN(C(=O)NCc3ccccc3)CC1)OCO2 [compound 32]	21
CC(=O)c1cc2c(cc1NC(=O)CN1CCN(C(=O)Nc3ccccc3)CC1)OCO2 [compound 33]	50
CC(=O)c1cc2c(cc1NC(=O)CN1CCN(C(=O)c3ccccc3)CC1)OCO2 [compound 34]	20
CC(=O)c1cc2c(cc1NC(=O)CN1CCN(C(=O)c3cccs3)CC1)OCO2 [compound 35]	40
CC(=O)c1cc2c(cc1NC(=O)CN1CCN(C(=O)c3ccco3)CC1)OCO2 [compound 36]	4
CC(=O)c1cc2c(cc1NC(=O)CN1CCN(C(=O)c3ccsc3)CC1)OCO2 [compound 37]	23
CC(=O)c1cc2c(cc1NC(=O)CN1CCN(C(=O)c3cccc(O)c3)CC1)OCO2 [compound 38]	50
CC(=O)c1cc2c(cc1NC(=O)CN1CCN(C(=O)c3ccncc3)CC1)OCO2 [compound 39]	70
CC(=O)c1cc2c(cc1NC(=O)CN1CCN(C(=O)c3ccccc3O)CC1)OCO2 [compound 40]	80
COc1ccccc1C(=O)N1CCN(CC(=O)Nc2cc3c(cc2C(C)=O)OCO3)CC1 [compound 41]	40
CC(=O)c1cc2c(cc1NC(=O)CN1CCN(C(=O)c3cccnc3)CC1)OCO2 [compound 42]	60
CC(=O)c1cc2c(cc1NC(=O)CN1CCN(C(=O)c3ccc(O)cc3)CC1)OCO2 [compound 43]	80
CC(=O)c1cc2c(cc1NC(=O)CN1CCN(C(=O)c3ccccc3F)CC1)OCO2 [compound 44]	50
CC(=O)c1cc2c(cc1NC(=O)CN1CCN(C(=O)c3ccc(F)cc3)CC1)OCO2 [compound 45]	28
CC(=O)c1cc2c(cc1NC(=O)CN1CCN(C(=O)c3cccc(F)c3)CC1)OCO2 [compound 46]	26
COc1ccc(C(=O)N2CCN(CC(=O)Nc3cc4c(cc3C(C)=O)OCO4)CC2)cc1 [compound 47]	21
COc1cccc(C(=O)N2CCN(CC(=O)Nc3cc4c(cc3C(C)=O)OCO4)CC2)c1 [compound 48]	13
CC(=O)c1cc2c(cc1NC(=O)CN1CCN(C(=O)c3ccccn3)CC1)OCO2 [compound 49]	100
CC(=O)c1cc2c(cc1NC(=O)CN1CCN(C(=O)c3cccc(CO)c3)CC1)OCO2 [compound 50]	402
COCc1cccc(C(=O)N2CCN(CC(=O)Nc3cc4c(cc3C(C)=O)OCO4)CC2)c1 [compound 51]	234
CC(=O)c1cc2c(cc1NC(=O)CN1CCN(C(=O)Cc3ccccc3)CC1)OCO2 [compound 52]	51

Structure (SMILES)	IC50 [nM]
CC(=O)c1cc2c(cc1NC(=O)CN1CCN(C(=O)Cc3ccccc3O)CC1)OCO2 [compound 53]	18
COc1ccccc1CC(=O)N1CCN(CC(=O)Nc2cc3c(cc2C(C)=O)OCO3)CC1 [compound 54]	24
CC(=O)c1cc2c(cc1NC(=O)CN1CCN(C(=O)Cc3ccccc3F)CC1)OCO2 [compound 55]	70
CC(=O)c1cc2c(cc1NC(=O)CN1CCN(C(=O)Cc3cccnc3)CC1)OCO2 [compound 56]	80
CC(=O)c1cc2c(cc1NC(=O)CN1CCN(C(=O)Cc3cccc(O)c3)CC1)OCO2 [compound 57]	100
COc1cccc(CC(=O)N2CCN(CC(=O)Nc3cc4c(cc3C(C)=O)OCO4)CC2)c1 [compound 58]	60
CC(=O)c1cc2c(cc1NC(=O)CN1CCN(C(=O)Cc3cccc(F)c3)CC1)OCO2 [compound 59]	200
CC(=O)c1cc2c(cc1NC(=O)CN1CCN(C(=O)Cc3ccncc3)CC1)OCO2 [compound 60]	80
CC(=O)c1cc2c(cc1NC(=O)CN1CCN(C(=O)Cc3ccc(O)cc3)CC1)OCO2 [compound 61]	50
COc1ccc(CC(=O)N2CCN(CC(=O)Nc3cc4c(cc3C(C)=O)OCO4)CC2)cc1 [compound 62]	200
CC(=O)c1cc2c(cc1NC(=O)CN1CCN(C(=O)Cc3ccc(F)cc3)CC1)OCO2 [compound 63]	400
CC(=O)c1cc2c(cc1NC(=O)CN1CCN(C(=O)Cc3ccco3)CC1)OCO2 [compound 64]	100
CC(=O)c1cc2c(cc1NC(=O)CN1CCN(C(=O)Cc3cccs3)CC1)OCO2 [compound 65]	30
CC(=O)c1cc2c(cc1NC(=O)CN1CCN(C(=O)c3cnn(C)c3)CC1)OCO2 [compound 66]	17
CC(=O)c1cc2c(cc1NC(=O)CN1CCN(C(=O)c3ccc(C)s3)CC1)OCO2 [compound 67]	15
CC(=O)c1cc2c(cc1NC(=O)CN1CCN(C(=O)c3sccc3C)CC1)OCO2 [compound 68]	30
CC(=O)c1cc2c(cc1NC(=O)CN1CCN(C(=O)c3c(C)noc3C)CC1)OCO2 [compound 69]	40
CC(=O)c1cc2c(cc1NC(=O)CN1CCN(C(=O)c3ccon3)CC1)OCO2 [compound 70]	20
CC(=O)c1cc2c(cc1NC(=O)CN1CCN(C(=O)c3ccn(C)n3)CC1)OCO2 [compound 71]	50
CC(=O)c1cc2c(cc1NC(=O)CN1CCN(C(=O)c3cnco3)CC1)OCO2 [compound 72]	60
CC(=O)c1cc2c(cc1NC(=O)CN1CCN(C(=O)c3cc(C)cs3)CC1)OCO2 [compound 73]	80
CC(=O)c1cc2c(cc1NC(=O)CN1CCN(C(=O)c3cn(C)nc3C)CC1)OCO2 [compound 74]	200
CC(=O)c1cc2c(cc1NC(=O)CN1CCN(C(=O)c3cnon3)CC1)OCO2 [compound 75]	100
CC(=O)c1cc2c(cc1NC(=O)CN1CCN(C(=O)c3nc(C)oc3C)CC1)OCO2 [compound 76]	70

Structure (SMILES)	IC50 [nM]
CC(=O)c1cc2c(cc1NC(=O)CN1CCN(C(=O)c3ccn(C)c3)CC1)OCO2 [compound 77]	30
CC(=O)c1cc2c(cc1NC(=O)CN1CCN(C(=O)c3cn(C)nn3)CC1)OCO2 [compound 78]	30
CC(=O)c1cc2c(cc1NC(=O)CN1CCN(C(=O)c3ccoc3)CC1)OCO2 [compound 79]	30
CC(=O)c1cc2c(cc1NC(=O)CN1CCN(C(=O)c3cc4ccccc4o3)CC1)OCO2 [compound 80]	500
CC(=O)c1cc2c(cc1NC(=O)CN1CCN(C(=O)c3ccc(C)o3)CC1)OCO2 [compound 81]	4
CCCCC(=O)N1CCN(CC(=O)Nc2cc3c(cc2OC)OCO3)CC1 [compound 82]	540
CCOC(=O)N1CCN(CC(=O)Nc2cc3c(cc2OC)OCO3)CC1 [compound 83]	520
CCCOC(=O)N1CCN(CC(=O)Nc2cc3c(cc2OC)OCO3)CC1 [compound 84]	240
COc1cc2c(cc1NC(=O)CN1CCN(C(=O)C3CCCO3)CC1)OCO2 (centres unmarked) [compound 85]	1160
COc1cc2c(cc1NC(=O)CN1CCN(C(=O)C3CCCCO3)CC1)OCO2 (centres unmarked) [compound 86]	1140
COc1cc2c(cc1NC(=O)CN1CCN(C(=O)CC3CCOCC3)CC1)OCO2 [compound 87]	1040
COc1cc2c(cc1NC(=O)CN1CCN(C(=O)c3ccco3)CC1)OCO2 [compound 88]	130
COc1cc2c(cc1NC(=O)CN1CCN(C(=O)c3ccc(C)o3)CC1)OCO2 [compound 89]	80
COc1cc2c(cc1NC(=O)CN1CCN(C(=O)c3ccccc3F)CC1)OCO2 [compound 90]	200
COc1cc2c(cc1NC(=O)CN1CCN(C(=O)c3ccccc3OC)CC1)OCO2 [compound 91]	280
COc1cc2c(cc1NC(=O)CN1CCN(C(=O)c3ccccc3O)CC1)OCO2 [compound 92]	440
COc1cc2c(cc1NC(=O)CN1CCN(C(=O)c3cccc(O)c3)CC1)OCO2 [compound 93]	430
COc1cc2c(cc1NC(=O)CN1CCN(C(=O)c3ccccn3)CC1)OCO2 [compound 94]	1510
COc1cc2c(cc1NC(=O)CN1CCN(C(=O)c3cccnc3)CC1)OCO2 [compound 95]	1340
COc1cc2c(cc1NC(=O)CN1CCN(C(=O)c3ccncc3)CC1)OCO2 [compound 96]	1440
COc1cc2c(cc1NC(=O)CN1CCN(C(=O)c3ccc(F)cc3)CC1)OCO2 [compound 97]	< 1000
COc1cc2c(cc1NC(=O)CN1CCN(C(=O)c3ccn(C)n3)CC1)OCO2 [compound 98]	1080
COc1ccccc1CC(=O)N1CCN(CC(=O)Nc2cc3c(cc2OC)OCO3)CC1 [compound 99]	600
